Biological target: Carbonic anhydrase 12 (Homo sapiens, UniProt O43570)
Sequence (O43570 whole entry): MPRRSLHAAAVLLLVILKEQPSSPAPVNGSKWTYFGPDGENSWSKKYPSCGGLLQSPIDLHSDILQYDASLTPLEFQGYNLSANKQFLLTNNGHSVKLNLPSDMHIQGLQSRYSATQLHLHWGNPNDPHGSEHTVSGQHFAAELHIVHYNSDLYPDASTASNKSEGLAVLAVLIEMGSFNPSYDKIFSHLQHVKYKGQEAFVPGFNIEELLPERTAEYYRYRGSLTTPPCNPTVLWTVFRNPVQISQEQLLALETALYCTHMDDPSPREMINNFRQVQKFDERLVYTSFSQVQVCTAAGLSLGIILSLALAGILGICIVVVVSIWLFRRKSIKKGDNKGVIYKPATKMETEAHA

| Compound | Ki |
| --- | --- |
| Nc1ccc(S(=O)(=O)Nc2nnc(S(N)(=O)=O)s2)cc1 | 85 nM |
| Nc1ccc(S(N)(=O)=O)cc1I | 11 nM |
| Cn1nc(S(N)(=O)=O)sc1=N | 4 nM |
| N[S+]([O-])c1ccc(S(=O)(=O)Nc2cccc3c(Cl)c[nH]c23)cc1 (stereo not given) | 3.4 nM |
| Nc1ccccc1S(N)(=O)=O | 0.85 nM |
| Nc1ccc(S(N)(=O)=O)cc1Cl | 3.1 nM |
| Nc1ccc(S(N)(=O)=O)cc1Br | 20 nM |
| Nc1ccc(S(N)(=O)=O)cc1F | 1.1 nM |
| NS(=O)(=O)c1nnc(-c2ccccc2Cl)s1 | 36 nM |
| NNc1ccccc1S(N)(=O)=O | 58 nM |
| NS(=O)(=O)c1ccc(C(=O)O)cc1 [CARZENIDE] | 34 nM |
| Nc1ccc(S(=O)(=O)NCCc2ccc(S(N)(=O)=O)cc2)cc1 | 4.5 nM |
| NS(=O)(=O)c1ccc(CCO)cc1 | 55 nM |

Continued, values first:

| Ki | Compound |
| --- | --- |
| 37 nM | CNc1ccc(S(N)(=O)=O)cc1 |
| 3.4 nM | Nc1nccc(Nc2ccc(S(N)(=O)=O)cc2)n1 |
| 11 nM | CN(N)c1ccc(S(N)(=O)=O)cc1 |
| 220 nM | NS(=O)(=O)c1ccc(CO)cc1 |
| 3.5 nM | Nc1ccc(S(=O)(=O)NCc2ccc(S(N)(=O)=O)cc2)cc1 |
| 0.3 nM | NCc1ccc(S(N)(=O)=O)cc1 [MAFENIDE] |
| 1.8 nM | Cc1ccc(S(N)(=O)=O)cc1 [P-TOLUENESULFONAMIDE] |

From ChEMBL document CHEMBL1141984, “Carbonic anhydrase inhibitors. Inhibition of the transmembrane isozyme XII with sulfonamides-a new target for the design of antitumor and antiglaucoma drugs?” (Bioorg Med Chem Lett, 2005)
